These results are taken from PubChem BioAssay (NCI).

SMILES strings stand for the structures.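 How tested: cells in 96-well plates exposed to compound for 48 hours at five concentrations. GI50 = concentration required for 50% inhibition of growth. TGI marks complete inhibition of growth.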

Holding throughout (experiment): NCI anticancer screen, dose series, 48 h
In assay [1] the test system is SF-539 CNS.
Assay [2] has as its system OVCAR-4 ovarian.
In assay [3] the test system is SNB-75 CNS.
Assay [4] has as its system PC-3 prostate.
In assay [5] the test system is 786-0 renal.
Assay [6] relates to SF-295 CNS.
For assay [7], the system named is KM12 colon.
For assay [8], the system named is OVCAR-3 ovarian.
Assay [9] concerns SK-MEL-28 melanoma.
For assay [10], the system named is SR leukemia.

As for `O=C(COc1cccc(/C=C2\Oc3ccc4ccccc4c3C2=O)c1)c1ccc(Cl)cc1`, the GI50 in assay [1] is more than 100 µM; in assay [2] it was 5.56 µM; in [3] it was 29.4 µM; in assay [4], 52.1 µM; in assay [5] it was 4.54 µM; in assay [6], more than 100 µM. Also, the GI50 in assay [7] was 30.2 µM; in assay [8] it was 19.8 µM; in assay [9], more than 100 µM. Besides, the TGI was more than 100 µM in [1]; more than 100 µM in [2]; 99.4 µM in assay [3]; more than 100 µM in assay [4]; 19 µM in assay [5]; more than 100 µM in assay [6]. The figures for the TGI in [7], in [8] and in assay [9] were more than 100 µM, 48.6 µM and more than 100 µM, respectively.

With `COc1ccc(-c2ccc(-c3ccc(C(=N)N)cn3)o2)cc1Cl`, the GI50 in assay [1] is 1.68 µM; in assay [2] it was 2.58 µM; in assay [3], 1.66 µM; in assay [4] it was 1.32 µM; in assay [5], 1.86 µM; in assay [6], 1.65 µM. In addition, the values for the GI50 in assay [8] and in assay [9] were 2.24 µM and 1.69 µM, respectively. Moreover, the TGI was determined as 3.14 µM in assay [1]; 7.75 µM in [2]; 3.51 µM in assay [3]; 2.68 µM in [4]; 3.4 µM in assay [5]; 3.27 µM in assay [6]. For the same compound, the TGI is 4.79 µM in assay [8] and 3.22 µM in assay [9].

Turning to `C=C(CNC(=O)c1ccccc1)c1ccc(C(=O)Nc2ccccc2N)cc1`, the GI50 in assay [1] is 1.38 µM; in assay [2] it was 11.6 µM; in [4] it was 2.95 µM; in assay [5], 7.55 µM; in assay [6], 12.5 µM; in assay [7] it was 5.11 µM. Further, the GI50 in [8] is 11.2 µM; in assay [9] it was 14 µM. Moreover, the TGI in assay [1], in assay [2], in assay [4], in assay [5], in assay [6] and in assay [7] was more than 100 µM in each case. Moreover, the TGI in [8] and in assay [9] was more than 100 µM in each case.

Turning to `CCCCn1c2ccccc2c2ccc3c(c21)C(=O)C=CC3=O`, the TGI in [1] was more than 100 µM; in assay [2], more than 100 µM; in assay [3], 0.638 µM; in assay [5] it was more than 100 µM; in assay [6] it was more than 100 µM; in assay [7], more than 100 µM. The TGI in assay [10], in [8] and in assay [9] was more than 100 µM throughout.

In the case of `S=c1sc2cscc2s1`, the TGI in [1] is 65.5 µM; in assay [2], 33 µM; in assay [3], 35.8 µM; in [5] it was 46.5 µM; in assay [6], more than 100 µM; in assay [7] it was 33.3 µM. Moreover, the TGI in assay [10] was more than 100 µM; in [8], 54.9 µM; in [9], 41.1 µM.

On to `FC(F)(F)c1cccc2c(SCCc3n[nH]c(=S)o3)ccnc12`, for which the GI50 in assay [1] is 45.9 µM; in [2], 32.5 µM; in assay [3], 36.3 µM; in assay [4], 34.1 µM; in [5], more than 100 µM; in assay [6], 48.7 µM. Further, the results for the GI50 in assay [7], in [8] and in assay [9] were 52.7 µM, 42.9 µM and 82.9 µM, respectively. Also, the TGI in assay [1], in assay [2], in [3], in [4], in assay [5] and in assay [6] was more than 100 µM each time. Further, the TGI in assay [7], in assay [8] and in assay [9] was more than 100 µM in each case.

Turning to `O=C1c2ccccc2-c2c1c1ccc([N+](=O)[O-])cc1c(=O)n2CCCNCCO`, the GI50 in assay [2] was 0.492 µM; in [3], 0.372 µM; in assay [4], 0.0907 µM; in assay [5], 0.0479 µM; in assay [6], 0.0729 µM; in [7], 0.297 µM. Further, the figures for the GI50 in assay [10], in assay [8] and in assay [9] were 0.0355 µM, 1.14 µM and 1.27 µM, respectively. The TGI came to 2.77 µM in assay [2]; 1.34 µM in assay [3]; 1.52 µM in [4]; 0.43 µM in assay [5]; 1.44 µM in assay [6]; 1.76 µM in assay [7]. The TGI was 1.78 µM in [10], 2.78 µM in assay [8] and 2.62 µM in [9].

Take `O=C(NC1C2CC3CC(C2)CC1C3)/C(Cl)=C1/Sc2ccccc2NC1=O` (stereo not given): the TGI in [1], in assay [2], in [3], in assay [5], in [6] and in [7] was more than 100 µM in each case. The TGI in assay [10], in [8] and in assay [9] was more than 100 µM each time.

Consider `CCOc1nccc2c1nc(-c1nonc1N)n2CC`, for which the GI50 is more than 25 µM in [1]; more than 25 µM in assay [2]; 16.2 µM in assay [3]; more than 25 µM in assay [4]; more than 25 µM in assay [5]; more than 25 µM in assay [6]. Further, the GI50 in [7], in assay [8] and in [9] was more than 25 µM each time. For the same compound, the TGI in assay [1], in assay [2], in assay [3], in [4], in [5] and in [6] was more than 25 µM each time. For the same compound, the TGI in assay [7], in assay [8] and in [9] was more than 25 µM throughout.

As for `CCc1ccc2nccc(NCCCN(C)C)c2c1[N+](=O)[O-]`, the TGI in [2], in [3], in assay [4], in assay [5], in [6] and in assay [7] was more than 100 µM in each case. Also, the TGI in assay [10], in assay [8] and in [9] was more than 100 µM each time.
